Here are results for 3 compounds from patent US20250127813A1, “COMBINATION DRUG” (OTSUKA PHARMACEUTICAL CO., LTD., priority 2021, published 2025).

“Also recorded” adds a separate entry of the source.

For the data set, the system named is NALM6-luc2. The protocol:
6-week-old NOG mice produced by In-Vivo Science Co., Ltd., were obtained, and tumor cells were intravenously transplanted into the mice at 7 weeks of age to prepare tumor-bearing mice. The day before the transplantation, busulfex (BSF) was intraperitoneally administered at 20 mg/kg. During the breeding period, the mice were housed with 5 mice per group and bred in a P2A breeding room set to a temperature of 24° C. (actual measurement: 19.7 to 25.0° C.), humidity of 50% (actual measurement: 38.6 to 58.5%), and illumination of 12 hours/day (8:00 a.m. to 8:00 p.m.). During the breeding period, the mice were allowed free access to radiation-sterilized solid feed for mice (CL-2, produced by Clea Japan, Inc.) and autoclave-sterilized tap water placed in a water bottle.
CD19 CAR-T cells were intravenously administered once according to the group constitution on the same day as grouping. The IAP antagonist also started to be administered on the same day as grouping and was orally or intravenously administered according to the group constitution table.
The evaluation period was set to 3 to 4 weeks. Grouping and pharmacological evaluation were performed based on tumor luminescence values as determined by IVIS (trademark). Luminescence value measurement by IVIS (trademark) and body weight measurement were performed twice a week.
For NALM6-luc2, after resuspension, a portion of the cell suspension was taken, dead cells were stained with AOPI Staining Solution, and the number of viable cells was counted with a blood cell measuring device. A cell suspension was prepared by diluting the cells with RPMI 1640 to 1×10^7 cells/mL, based on the measurement results of viable cell count of the cells. Similarly, in a low tumor volume system, a cell suspension was prepared by diluting the cells with serum-free RPMI 1640 to achieve a concentration of 1×10^6 cells/mL.
After the mice were retained using a retainer, a cell suspension was transplanted at 1×10^6 cells/0.1 mL/body using a 27G Myjector (1 mL, produced by Terumo Corporation) to the tail vein of each mouse with no anesthesia. In the low tumor volume system, a cell suspension at 1×10^5 cells/0.1 mL/body was transplanted.
In accordance with the dosing regimen shown in FIG. 6, NALM6-luc2 was transplanted the day after treating the […] with busulfex. On the third day after the transplantation, luminescence values were measured using the IVIS (trademark) Lumina X5 In-Vivo imaging system (produced by PerkinElmer, Co., Ltd.). Using the luminous values as an indicator and using SAS software R9.4 (produced by SAS Institute Japan), the mice were divided into groups of 5 mice each by the stratified random sampling method.
1) A suspension of CD19 CAR-T cells was administered to the tail vein at the time of grouping. For the dosage, the number of viable CD19 CAR-T cells was counted and a cell suspension prepared according to the group constitution table was administered once at 0.1 mL/body. For the administration, a Myjector syringe with a 27G needle was used.
5) Birinapant was intraperitoneally administered at a dose of 10 mL/kg according to the group composition table. Tolinapant, LCL161, and AT406 were orally administered at a dose of 10 mL/kg according to the group composition table using a sonde in the same manner. For intraperitoneal administration, an insulin syringe with a 26G needle was used in place of the sonde. For oral administration, a needle was used in place of the sonde to administer each drug.
VivoGlo™-luciferin (produced by Promega) was dissolved in D-PBS(−) to achieve a concentration of 30 mg/mL and then cryopreserved at −20° C. under light-shielded conditions. On the day of measurement, dissolved VivoGlo™-luciferin was diluted with an equivalent amount of D-PBS(−) and stored at room temperature under light-shielded conditions until use for testing. Based on the body weight measured in advance, VivoGlo™-luciferin was intraperitoneally administered in a volume of 10 mL/kg.

[1] abbreviates: LCL161 30 mg/kg qw po + CD19 CAR-T 1×10^5 cells/body iv.

Consider `CN[C@@H](C)C(=O)N[C@H](C(=O)N1CCC[C@H]1c1nc(C(=O)c2ccc(F)cc2)cs1)C1CCCCC1` [LCL161, reference compound], for which the “death of mice under LCL161 alone” value (LCL161 30 mg/kg orally twice a week) was “at least half of the mice died”. Besides, under setting [1], the “effect of LCL161 + 1×10^5 cells CD19 CAR-T compared with 1×10^6 cells CD19 CAR-T alone” value is “an effect equivalent to the effect achieved by using 1×10^6 cells of CD19 CAR-T alone was observed on day 14 and thereafter”; the “highest efficacy of combined use of LCL161 compared with combined use of tolinapant” value is “lower than the efficacy achieved by the combined use of tolinapant”. The “combination effect of LCL161 and CD19 CAR-T” value (LCL161 30 mg/kg qw po + CD19 CAR-T 1×10^5 cells/body iv, 30 mg/kg) is “a significant combination effect was observed on day 7 and thereafter; also recorded: showed a combination effect with CD19 CAR-T”. Where the note is “LCL161 30 mg/kg qw po, combination test with CD19 CAR-T, 30 mg/kg”, the “toxicity of LCL161 (death, weight loss) in the combination test” value was “highly toxic; also recorded: at least half of the animals died due to LCL161; also recorded: showed such toxicity as to confirm weight loss and death”. Besides, the “efficacy of LCL161 administered alone” value (LCL161 alone, 30 mg/kg orally twice a week) is listed as “no effects were exhibited”.

Turning to `CC[C@H](NC(=O)[C@H](C)NC)C(=O)N1C[C@@H](O)C[C@H]1Cc1c(-c2[nH]c3cc(F)ccc3c2C[C@@H]2C[C@H](O)CN2C(=O)[C@H](CC)NC(=O)[C@H](C)NC)[nH]c2cc(F)ccc12` [Birinapant, reference compound], the “combination effect of birinapant and CD19 CAR-T compared to CD19 CAR-T alone” value (birinapant 12 mg/kg q3-4d ip + CD19 CAR-T 1×10^5 cells/body iv) is given as “did not increase antitumor effects”. The “efficacy of birinapant administered alone” value (birinapant alone, 12 mg/kg, intraperitoneal administration twice a week) was “showed no efficacy”.

With `CN[C@@H](C)C(=O)N[C@H]1CN(C(=O)CC(C)C)CC[C@H]2CC[C@@H](C(=O)NC(c3ccccc3)c3ccccc3)N2C1=O` [AT406, reference compound], where the note is “AT406 100 mg/kg qd po + CD19 CAR-T 1×10^5 cells/body iv”, the “effect of AT406 + 1×10^5 cells CD19 CAR-T compared with 1×10^6 cells CD19 CAR-T alone” value is “an effect equivalent to the effect achieved by 1×10^6 cells of CD19 CAR-T alone was observed on day 14 and thereafter”. Moreover, for the setting “AT406 100 mg/kg qd po + CD19 CAR-T 1×10^5 cells/body iv, 100 mg/kg”, the “combination effect of AT406 and CD19 CAR-T” value is “a combination effect was observed on day 10 and thereafter; also recorded: showed a combination effect with CD19 CAR-T; also recorded: a combination effect profile similar to that of tolinapant”. For the setting “AT406 alone, 100 mg/kg, daily oral administration”, the “efficacy of AT406 administered alone” value was “showed no efficacy”.
